Patent US20100317698A1, “Polysubstituted Pyridinylaminoalkylene- and Pyridinyloxyalkylene-Cyclopropanamine Compounds, a Process for Their Preparation and Pharmaceutical Compositions Containing Them” (LES LABORATOIRES SERVIER, priority 2006, published 2010)

What was measured:
NMRI mouse = assay: Abdominal contractions induced by phenyl-p-benzoquinone (PBQ) in the NMRI mouse; type: in vivo; settings: 10 mg/kg IP
Method: Intraperitoneal administration of an alcoholic solution of PBQ causes abdominal cramps in the mouse (Proc. Soc. Exp. Biol., 1957, 95, 729-731). The cramps are characterised by repeated contractions of the abdominal musculature, accompanied by extension of the hind limbs. Most analgesics antagonise these abdominal cramps (Brit. J. Pharmacol. Chem., 1968, 32, 295-310). At t=0 min., the animals are weighed and the compound being studied is administered by the IP route. A group of control animals is given the solvent used for the compound. At t=30 min., an alcoholic solution of PBQ (0.2%) is administered by the IP route in a volume of 0.25 ml/mouse. Immediately after administration of the PBQ, the animals are placed in cylinders of plexiglass (L=19.5 cm; I.D.=5 cm). From t=35 min. to t=45 min., the animals' reaction is observed and the experimenter notes the total number of abdominal cramps per animal. The results are expressed as the percentage inhibition of the number of abdominal cramps measured in the control animals at the active dose of the compound studied.

[1] = target: T1, type α4β2 central nicotinic receptors (Rattus norvegicus, UniProt P09483+P12390); assay: Displacement of binding of [3H]-cytisine to type α4β2 nicotinic receptors of rat brain; settings: rat brain membranes, read-out: Affinity (Ki, nM) for type α4β2 receptors
T1 construct: from tissue; host or cells: rat brain membranes
Method: This study, carried out according to the technique described in Molec. Pharmacol., 1990, 39; 9-12, is aimed at determining the affinity of compounds of the present invention for type […] central nicotinic receptors.
Membranes (250 μg/ml) of rat brain are incubated (2 hours, 20° C.) in the presence of a series of concentrations (0.01-10 μM) of each compound of the present invention (diluted starting from a 10 mM stock solution in DMSO) and [^3H]-cytisine (S.A.: 1184 GBq/mmol: 2 nM) in phosphate buffer (NaH2PO4 20 mM, pH 7.4); final volume: 250 μl. The non-specific binding is determined by incubating membranes in the presence of 10 μM of (−)nicotine. The affinity of the compounds of the present invention for type α4β2 central nicotinic receptors is characterised by determination of the Ki.

[2] = system: cortical release of acetylcholine; assay: In vivo measurement of the release of acetylcholine by intra-cortical microdialysis in the conscious Wistar rat; settings: 10 mg/kg IP, median prefrontal cortex
Method: The systemic administration of nicotine and nicotinic agonists causes an increase, in vivo, of acetylcholine in various regions of the brain (Neurochem. Res., 1996, 21, 1181-1186; Eur. J. Pharmacol., 1998, 351, 181-188; Br. J. Pharmacol., 1999, 127, 1486-1494). A microdialysis probe is implanted in the median prefrontal cortex of male Wistar rats. Six or seven days after they have been implanted, the probes are perfused with Ringer's solution (NaCl 147 mM, KCl 2.7 mM, CaCl2 1.2 mM, MgCl2 1 mM, neostigmine 20 nM) at a flow rate of 1 μl/min, the animal being free to move. After 2 hours in the animal quarters, the product under test is administered by the intraperitoneal route. A group of control animals receives the solvent used for the product. The dialysates (30 μl) are then collected every 30 minutes for 4 hours in order to measure the extra-synaptic cortical concentrations of acetylcholine by means of HPLC with amperometric detection. The results are expressed in pg of acetylcholine/dialysate, and inter-group comparisons are carried out by means of variance analysis, using 2 factors (treatment×time), with measurements being repeated over time.

T1 sequence (P09483 31-630): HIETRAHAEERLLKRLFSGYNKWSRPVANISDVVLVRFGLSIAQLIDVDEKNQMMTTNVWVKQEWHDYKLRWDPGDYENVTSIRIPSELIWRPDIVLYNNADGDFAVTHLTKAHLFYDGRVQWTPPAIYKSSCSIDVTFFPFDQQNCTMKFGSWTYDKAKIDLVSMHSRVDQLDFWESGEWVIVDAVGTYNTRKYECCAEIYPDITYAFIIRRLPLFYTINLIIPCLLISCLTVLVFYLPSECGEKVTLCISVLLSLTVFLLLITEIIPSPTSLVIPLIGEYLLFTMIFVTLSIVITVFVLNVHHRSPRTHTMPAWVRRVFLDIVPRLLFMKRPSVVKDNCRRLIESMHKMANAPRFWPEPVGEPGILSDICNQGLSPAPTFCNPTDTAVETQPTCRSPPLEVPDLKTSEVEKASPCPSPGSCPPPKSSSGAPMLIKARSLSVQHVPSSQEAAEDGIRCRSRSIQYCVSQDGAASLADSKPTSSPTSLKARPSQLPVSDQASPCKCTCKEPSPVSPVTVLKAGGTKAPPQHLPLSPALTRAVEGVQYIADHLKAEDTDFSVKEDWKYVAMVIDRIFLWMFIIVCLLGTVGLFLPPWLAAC
T1 sequence (P12390 25-500): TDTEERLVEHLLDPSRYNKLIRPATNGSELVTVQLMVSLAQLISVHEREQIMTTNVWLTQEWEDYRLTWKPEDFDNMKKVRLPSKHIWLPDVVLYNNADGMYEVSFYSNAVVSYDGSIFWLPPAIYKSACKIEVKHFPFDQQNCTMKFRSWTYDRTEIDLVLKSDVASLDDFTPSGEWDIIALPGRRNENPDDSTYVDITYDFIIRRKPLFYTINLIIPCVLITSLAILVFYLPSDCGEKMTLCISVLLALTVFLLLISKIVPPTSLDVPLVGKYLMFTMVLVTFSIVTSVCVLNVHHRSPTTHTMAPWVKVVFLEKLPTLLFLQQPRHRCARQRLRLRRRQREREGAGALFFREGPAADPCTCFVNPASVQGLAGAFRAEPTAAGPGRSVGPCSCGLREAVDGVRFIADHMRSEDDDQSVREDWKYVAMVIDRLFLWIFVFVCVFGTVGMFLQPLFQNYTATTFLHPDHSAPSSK

| Compound | inhibition of the number of abdominal cramps versus control animals (NMRI mouse) [%] | melting point [°C] | Ki [1] [nM] | increase of the release of acetylcholine [2] |
| --- | --- | --- | --- | --- |
| CNC1(CNc2cnc(Cl)c(-c3ccncc3)c2)CC1.Cl.Cl [Example 106, 2-Chloro-N-{[1-(methylamino)cyclopropyl]methyl}-3,4′-bipyridin-5-amine dihydrochloride] | −87 | 100 to 110 | – | – |
| [1-({[5-(3-Methoxyphenyl)pyridin-3-yl]oxy}methyl)cyclopropyl]methylamine dihydrochloride [Example 1] | – | – | 7.9 | +72% |
| CNC1(COc2cnc(C)c(-c3ccncc3)c2)CC1.Cl.Cl.Cl [Example 81, Methyl(1-{[(2-methyl-3,4′-bipyridin-5-yl)oxy]methyl}cyclopropyl)amine trihydrochloride] | −90 | 130 to 138 | – | – |
| CNC1(COc2cnc(Cl)c(-c3ccc(C#N)cc3)c2)CC1.Cl [Example 18, 4-(2-Chloro-5-{[1-(methylamino)cyclopropyl]methoxy}pyridin-3-yl)benzonitrile hydrochloride] | – | 215 to 220 | – | +104% |
